Measured values reported in ChEMBL document CHEMBL1201862, “PubChem BioAssay data set” (2004).
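Protocol summary: plate cells (96-well), add compound at 5 concentrations, incubate 48 h, interpolate endpoints linearly. The concentration for 50% growth inhibition is given as GI50.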 The source made the active and inactive calls. Rule as the data show it: active = GI50 up to about 1.1 µM and inactive = higher.

How the values were obtained:
Experiment in all cases: DTP human tumour cell line panel, 48 h
A498 = test system: A498
ACHN = test system: ACHN
CCRF-CEM = test system: CCRF-CEM
DU-145 = test system: DU-145
EKVX = test system: EKVX
HCT-116 = test system: HCT-116
HCT-15 = test system: HCT-15
Hs-578T = test system: Hs-578T
MDA-MB-231 = test system: MDA-MB-231
MDA-N = test system: MDA-N
NCI-H226 = test system: NCI-H226
NCI-H522 = test system: NCI-H522
NCI/ADR-RES = test system: NCI/ADR-RES
RXF 393 = test system: RXF 393
SF-295 = test system: SF-295
SF-539 = test system: SF-539
SK-MEL-28 = test system: SK-MEL-28
TK-10 = test system: TK-10
UACC-257 = test system: UACC-257
HCC 2998 = test system: HCC 2998

| SMILES | GI50 (A498) | GI50 (ACHN) | GI50 (CCRF-CEM) | GI50 (DU-145) | GI50 (EKVX) | GI50 (HCT-116) | GI50 (HCT-15) | GI50 (Hs-578T) | GI50 (MDA-MB-231) | GI50 (MDA-N) | GI50 (NCI-H226) | GI50 (NCI-H522) | GI50 (NCI/ADR-RES) | GI50 (RXF 393) | GI50 (SF-295) | GI50 (SF-539) | GI50 (SK-MEL-28) | GI50 (TK-10) | GI50 (UACC-257) | GI50 (HCC 2998) |
| --- | --- | --- | --- | --- | --- | --- | --- | --- | --- | --- | --- | --- | --- | --- | --- | --- | --- | --- | --- | --- |
| Cn1c(=O)c2nc(SCCN3CCOCC3)[nH]c2n(C)c1=S | > 100 µM (inactive) | > 100 µM (inactive) | > 100 µM (inactive) | > 100 µM (inactive) | > 100 µM (inactive) | > 100 µM (inactive) | > 100 µM | > 100 µM (inactive) | > 100 µM (inactive) | > 100 µM (inactive) | > 100 µM (inactive) | > 100 µM (inactive) | > 100 µM (inactive) | > 100 µM (inactive) | > 100 µM (inactive) | > 100 µM (inactive) | > 100 µM (inactive) | > 100 µM (inactive) | > 100 µM (inactive) |  |
| COc1ccc(C2CC(c3ccccc3)=Nc3c(-c4ccccc4)nnn32)cc1 (stereo not drawn) | > 100 µM (inactive) | 17 µM (inactive) | > 100 µM (inactive) | > 100 µM (inactive) |  | 35.5 µM (inactive) | 9.06 µM | 51.2 µM (inactive) | 85.1 µM (inactive) | > 100 µM (inactive) | > 100 µM (inactive) | 8.22 µM (inactive) | > 100 µM (inactive) |  | > 100 µM (inactive) | 85.3 µM (inactive) |  |  | > 100 µM (inactive) |  |
| Cc1cc(CN2CCCCC2)c(O)c(CN2CCCCC2)c1 | > 100 µM (inactive) | > 100 µM (inactive) | 41.3 µM (inactive) | > 100 µM (inactive) | > 100 µM (inactive) | > 100 µM (inactive) | > 100 µM | > 100 µM (inactive) | > 100 µM (inactive) | > 100 µM (inactive) | > 100 µM (inactive) | > 100 µM (inactive) | > 100 µM (inactive) | > 100 µM (inactive) | > 100 µM (inactive) |  | > 100 µM (inactive) | > 100 µM (inactive) | > 100 µM (inactive) | > 100 µM (inactive) |
| CCOCc1nc2c(OC)c(-c3nc4ccc(N5CCN(C)CC5)cc4[nH]3)cc(OC)c2[nH]1 | 37 µM (inactive) | 57.4 µM (inactive) | 12.7 µM (inactive) | 68.5 µM (inactive) | > 100 µM (inactive) | 34 µM (inactive) | 44.2 µM | 34.2 µM (inactive) | 28.2 µM (inactive) | 18.6 µM (inactive) | 31.9 µM (inactive) | 23.5 µM (inactive) | > 100 µM (inactive) | 16 µM (inactive) | 21 µM (inactive) | 19.3 µM (inactive) | 18.6 µM (inactive) | 53.3 µM (inactive) | 19 µM (inactive) |  |
| CS(=O)(=O)Nc1ccc2ccccc2c1 | > 100 µM (inactive) | > 100 µM (inactive) | > 100 µM (inactive) | > 100 µM (inactive) | 57.3 µM (inactive) | > 100 µM (inactive) | > 100 µM | > 100 µM (inactive) | > 100 µM (inactive) | > 100 µM (inactive) | 79.4 µM (inactive) | > 100 µM (inactive) | > 100 µM (inactive) |  | > 100 µM (inactive) | > 100 µM (inactive) | > 100 µM (inactive) | > 100 µM (inactive) | > 100 µM (inactive) | > 100 µM (inactive) |
| CCOc1ccccc1/N=C\c1c2ccccc2cc2ccccc12 | 27 µM (inactive) | 29 µM (inactive) | 9.29 µM (inactive) | 22.1 µM (inactive) | 18.1 µM (inactive) | 18.4 µM (inactive) | 24.4 µM | 15.3 µM (inactive) | 27.2 µM (inactive) | 21.9 µM (inactive) | 46.5 µM (inactive) |  | 23.1 µM (inactive) | 15.7 µM (inactive) | 30 µM (inactive) | 23.8 µM (inactive) | 26.2 µM (inactive) | 25 µM (inactive) | 31.1 µM (inactive) | 18.5 µM (inactive) |
| Cc1c(CN2CCOCC2)c(CN2CCOCC2)c(C)n1-c1ccc(Cl)cn1 | > 100 µM (inactive) | > 100 µM (inactive) | > 100 µM (inactive) | > 100 µM (inactive) | > 100 µM (inactive) | > 100 µM (inactive) | > 100 µM | > 100 µM (inactive) | > 100 µM (inactive) | > 100 µM (inactive) | > 100 µM (inactive) | > 100 µM (inactive) | > 100 µM (inactive) | > 100 µM (inactive) | > 100 µM (inactive) |  | > 100 µM (inactive) | > 100 µM (inactive) | > 100 µM (inactive) | > 100 µM (inactive) |
| S=C(NC/C(Br)=C/Br)Nc1cccc2ccccc12 | 33.5 µM (inactive) | 28.9 µM (inactive) | 18.3 µM (inactive) | 30.9 µM (inactive) | 28.9 µM (inactive) | 24.2 µM (inactive) | 31.3 µM | > 100 µM (inactive) | 19.4 µM (inactive) | 25.4 µM (inactive) | 26.7 µM (inactive) | 20 µM (inactive) | 19 µM (inactive) | 31.3 µM (inactive) | 33.3 µM (inactive) | 25.5 µM (inactive) |  | 40.6 µM (inactive) | 22.5 µM (inactive) |  |
| C[C@]12[C@@H]3CC[C@H]1[C@@H](O)C(=O)N2CC3 | > 100 µM (inactive) | > 100 µM (inactive) | > 100 µM (inactive) | > 100 µM (inactive) | > 100 µM (inactive) | > 100 µM (inactive) | > 100 µM | > 100 µM (inactive) | > 100 µM (inactive) | > 100 µM (inactive) |  | > 100 µM (inactive) | > 100 µM (inactive) | > 100 µM (inactive) | > 100 µM (inactive) |  | > 100 µM (inactive) | > 100 µM (inactive) | > 100 µM (inactive) | > 100 µM (inactive) |
| c1cc2cc(c1)CN1CCNCCN(CCNCC1)Cc1cccc(c1)CN1CCNCCN(CCNCC1)C2 | > 100 µM (inactive) | > 100 µM (inactive) |  | > 100 µM (inactive) | > 100 µM (inactive) | > 100 µM (inactive) | > 100 µM | > 100 µM (inactive) | > 100 µM (inactive) | > 100 µM (inactive) |  |  | > 100 µM (inactive) |  | > 100 µM (inactive) | > 100 µM (inactive) | > 100 µM (inactive) | > 100 µM (inactive) | > 100 µM (inactive) | > 100 µM (inactive) |
| CC(=O)OCC1OC(Oc2cc(C)c(O)cc2C/C=C(\C)CC/C=C(\C)C[C@@H](C=C(C)C)OC(C)=O)C(O)C(OC(C)=O)C1OC(C)=O (stereo partly drawn) | 15.2 µM (inactive) | 20 µM (inactive) | 9.46 µM (inactive) | 28.6 µM (inactive) | 38.6 µM (inactive) | 23.2 µM (inactive) | 16.3 µM | 13.6 µM (inactive) | 37.3 µM (inactive) | 25.2 µM (inactive) |  | 17.1 µM (inactive) | 16.8 µM (inactive) | 12 µM (inactive) | 22.2 µM (inactive) |  | 44.5 µM (inactive) | 22.9 µM (inactive) | 10 µM (inactive) | 16.9 µM (inactive) |
| COC(=O)Nc1nc2cc(S(=O)(=O)Nc3ccccn3)ccc2[nH]1 | 61.1 µM (inactive) | 63 µM (inactive) | 26.1 µM (inactive) | 71.1 µM (inactive) | > 100 µM (inactive) | 49.9 µM (inactive) | 19.8 µM | 35.6 µM (inactive) | > 100 µM (inactive) | 20.7 µM (inactive) | 36.3 µM (inactive) | 45.2 µM (inactive) | 34.1 µM (inactive) | 39.6 µM (inactive) | 49.7 µM (inactive) | 22.7 µM (inactive) | 14.4 µM (inactive) | 33.3 µM (inactive) | 17.7 µM (inactive) |  |
| O=C(OCc1ccccc1)N1CCNCCNCCN(C(=O)OCc2ccccc2)CCNCC1 | 20.8 µM (inactive) | 39.9 µM (inactive) | 18.8 µM (inactive) | > 100 µM (inactive) | 24 µM (inactive) | 14 µM (inactive) | 18.7 µM | 19.1 µM (inactive) | 16.1 µM (inactive) | 16.2 µM (inactive) | > 100 µM (inactive) | 15.7 µM (inactive) | 50.5 µM (inactive) |  | 16.4 µM (inactive) | 18.5 µM (inactive) | 15.3 µM (inactive) | 24.8 µM (inactive) | 16.5 µM (inactive) |  |
| CC(C)=CCC[C@@H](C)C1=C(O)C(=O)C(C)=C(Nc2ccccc2)C1=O | 20 µM (inactive) | 13.5 µM (inactive) | 1.62 µM (inactive) | 24.2 µM (inactive) | 24.2 µM (inactive) | 18.1 µM (inactive) | 7.5 µM | 31.8 µM (inactive) | 22.5 µM (inactive) | 28.4 µM (inactive) | 26.7 µM (inactive) |  | 4.03 µM (inactive) | 19.2 µM (inactive) | 5.77 µM (inactive) | 26 µM (inactive) | 43 µM (inactive) | 29 µM (inactive) | 28.1 µM (inactive) | 45.1 µM (inactive) |
| COc1cc([N+](=O)[O-])c(S(=O)(=O)O)cc1NS(=O)(=O)c1ccc(C)cc1 | > 100 µM (inactive) | > 100 µM (inactive) | > 100 µM (inactive) | > 100 µM (inactive) | > 100 µM (inactive) | > 100 µM (inactive) | > 100 µM | > 100 µM (inactive) | > 100 µM (inactive) | > 100 µM (inactive) | > 100 µM (inactive) | > 100 µM (inactive) | > 100 µM (inactive) |  | > 100 µM (inactive) | > 100 µM (inactive) | > 100 µM (inactive) | > 100 µM (inactive) | > 100 µM (inactive) |  |
